Assay results taken from patent publication US20170058319A1, “NANOSENSOR FOR ASSESSING THROMBIN INHIBITORS” (VIRGINIA COMMONWEALTH UNIVERSITY, priority 2014, published 2017).
“Also recorded” adds a separate entry of the source.

Tests used:
[1] = cited from earlier work
[2] = Experimental: Stability of Au-TH nanoparticles was studied at RT and at −80° C. The NPs were kept in dark at RT for six hours and at −80° C. for 1 month. Absorbance spectra were measured every hour.
[3] = Catalytic activity of surface bound thrombin, Michaelis Menten kinetics; format: biochemical; settings: PBS pH 7.4, 37° C., Spectrozyme TH 0.7-750 μM
Experimental: Michaelis Menten kinetics were utilized to test the catalytic activity of the surface bound thrombin on the AuNP-TH using a microplate chromogenic substrate hydrolysis assay. Briefly, 165 μL aliquots of PBS buffer pH 7.4 were placed in a 96-well microplate, to which either 5 μL of thrombin at a concentration of 0.04 mg/ml (1 μM) or 5 μL of AuNP-TH was added. The solution was incubated for 5 minutes at 37° C., followed by addition of 30 μL of serial dilutions of Spectrozyme TH substrate such that the final concentrations ranged from 0.7-750 μM. The velocity of substrate hydrolysis was measured by monitoring the slope of the increase in absorbance at 405 nm. A plot of velocity of substrate hydrolysis (v) vs substrate concentration ([S]) (FIG. 5) was fit to the Michaelis Menten equation below to yield the Michaelis Menten constant (KM) and maximum velocity of the reaction (VMAX), which are a direct measure of the catalytic efficiency of the enzyme.

Au-TH nanoprobe = target: T1, Au-TH nanoprobe (Bos taurus, UniProt P00735); test: Quenching of [5F]-hirudin (54-65) SO3- fluorescence by Au-TH nanoprobe; format: binding, bovine; settings: 30 nM HirP, 0.5 h at RT, 525 nm (λex=488 nm)
T1 construct: An aliquot of bovine α-thrombin (200 μg) from a stock solution; purchased Haematologic Technologies, Vermont, USA BCT-1020

[4] = target: T2, Au-TH-HirP nanoprobe (NSET pair) (Bos taurus, UniProt P00735); test: Probing antithrombin levels in buffer with Au-TH-HirP nanoprobe (NSET pair); format: binding, bovine; settings: for increase in fluorescence at 525 nm: 1 hr incubation
T2 construct: An aliquot of bovine α-thrombin (200 μg) from a stock solution; purchased Haematologic Technologies, Vermont, USA BCT-1020
Experimental: Au-TH-NP (6 nM, 50 μL) and HirP (50 μL, 30 nM) were mixed with 20 mM Tris-HCl buffer, pH 7.4, containing 100 mM NaCl, 2.5 mM CaCl2 and 0.1% PEG8000 and used as the standard nano-metal surface energy transfer (NSET) pair. Antithrombin (AT) was serially diluted starting from 100 μM to 1 pM by adding 20 mM Tris-HCl buffer, pH 7.4. Serially diluted AT solutions were then incubated with standard NSET pair in a 96-well plate for 0-1 h at RT with gentle rocking. A solution of 100 μL of Au-TH-HirP nanoprobe (NSET pair) mixed with 50 μL of buffer was used a control (F0). After 1 h of incubation, the 96-well plate was read at 525 nm (λex=488 nm) (F). A plot of F/F0 as Y-axis against AT concentration as X-axis is shown as FIG. 5. […] The fluorescence increases were smaller at 15, 30 and 45 min timepoints (FIG. 5).

[5] = target: T3, surface bound thrombin on the AuNP (Bos taurus, UniProt P00735); test: Reactivity of surface bound thrombin to antithrombin, chromogenic substrate hydrolysis assay; format: biochemical, bovine; settings: AT alone
T3 construct: An aliquot of bovine α-thrombin (200 μg) from a stock solution; purchased Haematologic Technologies, Vermont, USA BCT-1020
Experimental: To test if the surface bound thrombin on the AuNP is reactive towards antithrombin, chromogenic substrate hydrolysis assay like the one mentioned above was performed in the presence of antithrombin and heparin. In a 96-well microplate, 80 μL of PBS buffer was mixed with 5 μL of either AuNP or water. Following this, 5 μL of AT (100 μM) and 5 μL of heparin (3.6 mM) was added and the mixtures were incubated at 25° C. for 20 minutes. Controls were kept with and without AT and heparin, respectively. After incubation, 5 μL of 5 mM Spectrozyme TH was added and the rate of substrate hydrolysis was monitored by observing the absorbance at 405 nm. The velocity of the substrate hydrolysis as obtained by the slope was compared to that of the controls in order to assess the reactivity of the thrombin towards AT (FIG. 6). An approximate 70% reactivity towards AT in the presence of heparin is observed for the AuNP-TH sample.

[6] = in vivo; cited from earlier work
[7] = target: T4, NSET pair (Au-TH-NS and HirP) (Bos taurus, UniProt P00735); test: Probing antithrombin levels in plasma with NSET pair; format: binding, bovine; settings: 600 μM BSA, 5-20 μL
T4 construct: An aliquot of bovine α-thrombin (200 μg) from a stock solution; purchased Haematologic Technologies, Vermont, USA BCT-1020
Experimental: A 96-well plate was used for this experiment. The baseline fluorescence of the NSET pair (Au-TH-NS (6 nM, 50 μL) and HirP (50 μL, 30 nM) in 50 μL of 20 mM Tris-HCl buffer, pH 7.4, containing 100 mM NaCl, 2.5 mM CaCl2 and 0.1% PEG8000) was measured by recording the fluorescence emission at 525 nm (λex=488 nm). The NSET pair was then incubated with different volumes of plasma (5 μL, 10 μL, 15 μL and 20 μL). To assess specificity of AT reaction, the NSET pair was also incubated with 600 μM BSA (5 μL, […], 15 μL and 20 μL). The fluorescence intensity was recorded within 1-3 min after incubation began (FIG. 6).

AT levels = settings: in vivo; cited from earlier work
PF-4 heparin complex = target: T5, PF-4 heparin complex (Homo sapiens, UniProt P02776); settings: in vivo; cited from earlier work
T5 sequence (P02776 32-101): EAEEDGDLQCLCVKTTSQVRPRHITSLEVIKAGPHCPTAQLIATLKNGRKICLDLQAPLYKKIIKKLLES

Compound: CCCCCCOC(=O)NC(=N)c1ccc(NCc2nc3cc(C(=O)N(CCC(=O)OCC)c4ccccn4)ccc3n2C)cc1 [Dabigatran etexilate]
- liver function tests ([1]; doses as high as 300 mg twice a day for 12 weeks): no abnormal liver function tests
- patients who developed significant bleeding ([1]; trial with and without aspirin): approximately 11%

Compound: Au-TH nanoparticles: gold nanoparticles covalently linked to bovine alpha-thrombin
- stability, change in absorbance spectra ([2]; RT, in dark, six hours): essentially no change
- stability, degradation on storage ([2]; −80° C., 1 month): did not exhibit any degradation
- VMAX and KM / catalytic efficiency compared with free thrombin ([3]; listed as Au-TH NP): identical to that of free thrombin
- VMAX and KM / catalytic efficiency compared with free thrombin ([3]; listed as AuNP-TH): remain almost the same as that of free thrombin

Compound: [5F]-hirudin (54-65) SO3^− [HirP]
- quenching of fluorescence from HirP (Au-TH nanoprobe): approximately 86%

Compound: antithrombin [AT]
- fluorescence increases at earlier timepoints ([4]; 15, 30 and 45 min timepoints versus 1 hr): smaller
- increase in fluorescence at 525 nm ([4]; AT 1 μM): approximately 40%
- increase in fluorescence at 525 nm ([4]; AT 10 μM): ~25
- increase in fluorescence at 525 nm ([4]; AT 100 μM): ~20%
- increase in fluorescence ([4]; AT concentrations less than 1 μM): Noticeable increases
- neutralization of surface bound thrombin by AT [5]: up to 60%

Compound: bivalirudin
- half-life [6]: 25 min

Compound: bovine serum albumin [BSA]
- change in emission intensity [7]: significant decrease; also recorded: Corresponding increases were not observed

Compound: heparin
- incidence of acquired AT deficiency (AT levels): ≤ 25%

Compound: unfractionated heparin [UFH]
- patients forming antibodies to PF-4 heparin (PF-4 heparin complex): 30-40%
